Assay results: article PMC6332330, “Four New Cyclohexylideneacetonitrile Derivatives from the Hypocotyl of Mangrove (Bruguiera gymnorrhiza)” (Molecules, 2015)
Values after ≈ are worked out from the molar mass of the structure shown.

Key:
HBV replication = assay: Anti-HBV antiviral assay in standardized culture assay; conditions: for EC50: Hepatitis B virus, read-out: EC50 (anti-HBV activity); for activity against HBV replication (in words): human hepatoblastoma cell line, activity order 5 > 6 > 4 > 3 > 1 > 2 > 7; for SI (CC50/EC50): selectivity index, ratio of CC50 to EC50
[1] = Toxicity in standardized culture assay; conditions: human
[2] = HBV-producing human hepatoblastoma cell line

With N#C/C=C1/C=C[C@H](O)C[C@@H]1O[C@@H]1O[C@H](CO)[C@@H](O)[C@H](O)[C@H]1O [Compound 5, menisdaurin] the EC50 (HBV replication) was 5.1 ± 0.2 µg/mL (≈ 16.3 µM), the “activity against HBV replication (in words)” value (HBV replication) was “most effective activity” and the “SI (CC50/EC50)” value (HBV replication) was 11.3. It also gave a CC50 [1] of 57.8 ± 3.9 µg/mL (≈ 184 µM).
For CO[C@H]1C=C/C(=C/C#N)[C@@H](O[C@@H]2O[C@H](CO)[C@@H](O)[C@H](O)[C@H]2O)C1 [Compound 1, Menisdaurin B], the EC50 (HBV replication) was 23.8 ± 0.5 µg/mL (≈ 72.7 µM), the “SI (CC50/EC50)” value (HBV replication) was 7.5 and the CC50 [1] was 178 ± 13.3 µg/mL (≈ 544 µM).
With CO[C@H]1CC/C(=C/C#N)[C@@H](O[C@@H]2O[C@H](CO)[C@@H](O)[C@H](O)[C@H]2O)C1 [Compound 2, Menisdaurin C] the EC50 (HBV replication) was 30.7 ± 1 µg/mL (≈ 93.2 µM), the “SI (CC50/EC50)” value (HBV replication) was 5.4 and the CC50 [1] was 165 ± 10.4 µg/mL (≈ 501 µM).
With N#C/C=C1/CC[C@H](O)C[C@@H]1O[C@@H]1O[C@H](CO)[C@@H](O)[C@H](O)[C@H]1O [Compound 3, Menisdaurin D] the EC50 (HBV replication) was 19.4 ± 0.3 µg/mL (≈ 61.5 µM), the “SI (CC50/EC50)” value (HBV replication) was 9.4 and the CC50 [1] was 182 ± 6.8 µg/mL (≈ 577 µM).
In the case of N#C/C=C1\C=C[C@H](O)C[C@@H]1O [Compound 6, coclauril], the EC50 (HBV replication) is reported as 7.6 ± 0.5 µg/mL (≈ 50.3 µM), the “SI (CC50/EC50)” value (HBV replication) is reported as 11.0 and the CC50 [1] is reported as 83.9 ± 2.3 µg/mL (≈ 555 µM).
In the case of O=C1C=C2C=C[C@@H](O)C[C@H]2O1 [Compound 7, menisdaurilide], the EC50 (HBV replication) is reported as 80.7 ± 5.8 µg/mL (≈ 530 µM), the “activity against HBV replication (in words)” value (HBV replication) is reported as “lesser degree of specific activity” and the “SI (CC50/EC50)” value (HBV replication) is reported as 2.7. For the same compound, the CC50 [1, 2] was 215 ± 14.7 µg/mL (≈ 1410 µM).
Nc1ccn([C@@H]2CS[C@H](CO)O2)c(=O)n1 [Lamivudine, reference compound] showed an EC50 (HBV replication) of 0.1 ± 0.03 µg/mL (≈ 0.436 µM).
For N#C/C=C1/CC[C@H](O)C[C@@H]1O [Compound 4, Menisdaurin E], the EC50 (HBV replication) was 8.7 ± 1.1 µg/mL (≈ 56.8 µM), the “SI (CC50/EC50)” value (HBV replication) was 8.3 and the CC50 [1, 2] was 72.3 ± 4.1 µg/mL (≈ 472 µM).
